Results as given in the METLIN SMRT retention time set (Domingo-Almenara et al. 2019).

Test: gradient 5% acetonitrile 3 min, to 50% in 2 min, to 85% in 15 min, held 3 min, 100 µL/min
Conditions: column: Zorbax Extend-C18 2.1 x 50 mm; eluents: water / acetonitrile, 0.1% formic acid
Summary of the method: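 The mobile phases were water and acetonitrile, each with 0.1% formic acid, pumped at 100 μL/min through a Zorbax Extend-C18 column (2.1 × 50 mm, 1.8 μm). Pure standards were injected as mixtures of ~100 molecules and detected by a quadrupole time-of-flight mass spectrometer in positive and negative ionization mode. Retention time came from computationally picked adduct peaks, each inspected by hand.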

Row | Compound | RP-LC retention time
1 | CCOC(=O)c1cccc(NC(=O)CCc2c(-c3ccc(Cl)cc3)nc3ccccn23)c1 | 739 s
2 | CCc1nc2c(NC(=O)c3ccccc3)cccn2n1 | 792 s
3 | CCN(CC)c1ccc(C2=NNC(=O)CC2C)cc1[N+](=O)[O-] (centres undefined) | 773 s
4 | COc1ccc(-c2nc(-c3cn(-c4cccc(F)c4)nn3)no2)c(OC)c1 | 999 s
5 | COc1cccc(C2=NN(C(C)=O)C(c3cccc(Br)c3)O2)c1OC(C)=O (centres undefined) | 1070 s
6 | Cc1ccc(-c2ccc(N3CCN(c4ccccn4)CC3)nn2)cc1S(=O)(=O)N1CCOCC1 | 623 s
7 | CCc1noc(NC(C)=O)c1-c1ccc(C)c(S(=O)(=O)Nc2ccccc2)c1 | 719 s
8 | Cn1c(=O)sc2cc(S(=O)(=O)N3CCC(C(=O)Nc4ccc(F)c(Cl)c4)CC3)ccc21 | 938 s
9 | CCN1C(=O)COc2ccc(-c3noc(CNC(=O)c4ccccc4)n3)cc21 | 802 s
10 | CC(C)C(=O)Nc1ccc(CCc2nc3ccc(C(=O)NC4CC4)cc3[nH]2)cc1 | 594 s
11 | O=C(c1ccccc1)c1ccc(-c2ccc(O)cc2)cc1 | 1000 s
12 | Cn1c(=O)n(CC(=O)N2CCCC2)c(=O)c2cnc(-c3ccc(Cl)cc3)nc21 | 924 s
13 | CC(C)(C)CC(=O)N1CCC(Oc2nccnc2N2CCc3ccccc32)C1 (centres undefined) | 1060 s
14 | O=C(NCc1ccco1)C1CN(C(=O)c2ccccc2)CC12CCCCC2 (centres undefined) | 795 s
15 | O=C(Cc1ccccc1F)NCCc1nc(-c2ccc3c(c2)OCO3)n[nH]1 | 687 s
16 | Cn1nc2n(c1=O)CCC(NC(=O)c1n[nH]c3c1CC(C(C)(C)C)CC3)CC2 (centres undefined) | 724 s
17 | O=C1C(=O)N(Cc2ccc(C(=O)N3CCCC3)cc2)CCN1Cc1ccc(F)cc1 | 702 s
18 | Cc1ccc(CCNC(=O)Cc2csc3nc(-c4ccc(C)c(C)c4)cn23)cc1 | 884 s
19 | CC(C)(C)n1nc(C2CC2)cc1NC(=O)Nc1ccccc1 | 889 s
20 | CCNc1ncnc2sc3c(c12)CCN(C(=O)c1ccncc1)C3 | 591 s
21 | COC(=O)c1cccc(C(=O)N2CCN(c3cc(Cl)ccc3C)CC2)n1 | 946 s
22 | COc1ccc(S(=O)(=O)N(C)CCCC(=O)O)cc1N(C)S(C)(=O)=O | 633 s
23 | O=C(NCC1CCCO1)C1CCN(c2nccnc2Sc2ccccc2)CC1 (centres undefined) | 796 s

Row | Compound | RP-LC retention time
24 | Cc1noc(C)c1S(=O)(=O)NCCn1c(C)cnc1-c1ccncc1 | 570 s
25 | O=C(Cc1ccc2c(c1)OCO2)N(CC1CCCO1)c1nc2c(F)cc(F)cc2s1 (centres undefined) | 1180 s
26 | CC1Oc2ccc(S(=O)(=O)N3CCC(C(=O)Nc4ccc(C(C)C)cc4)CC3)cc2NC1=O (centres undefined) | 916 s
27 | O=S(=O)(c1ccccc1Cl)N1CC(COc2ccncc2)C2(CCOCC2)C1 (centres undefined) | 574 s
28 | O=C(NCc1ccc(F)cc1)NCc1cccn1Cc1cccc(F)c1 | 680 s
29 | CCc1noc(NC(C)=O)c1-c1ccc(C)c(S(=O)(=O)Nc2ccc(C)c(F)c2)c1 | 856 s
30 | CCN(CC)c1cc2c(cc1NC(=O)COc1ccc(Cl)cc1)n(C)c(=O)c(=O)n2C | 965 s
31 | CCN1CCN(C(=S)Nc2ccc3nc(N4CCN(CC)CC4)cc(C)c3c2)CC1 | 519 s
32 | O=C(NC1CC1)c1ccc(OCC2CCCN(C(=O)c3c(F)cccc3F)C2)cc1 (centres undefined) | 820 s
33 | Clc1ccc(-c2noc(CN3CCOCC3)n2)cc1 | 775 s
34 | CCN1C(=O)C2(CCN(S(=O)(=O)c3c(C)noc3C)CC2)c2ccccc21 | 731 s
35 | CCc1ccc(NC(=O)Cc2c(C)nn(-c3nc(-c4ccc(F)cc4)cs3)c2C)cc1 | 1240 s
36 | CCc1ccc(NC(=O)Cc2c(C)nn(-c3nc(-c4ccc(Cl)cc4)cs3)c2C)cc1 | 972 s
37 | Cc1ccc(-c2noc(Cn3cnc4c(cnn4-c4ccc(C)c(Cl)c4)c3=O)n2)cc1 | 1270 s
38 | COc1cccc2sc(N3CCc4ccccc4C3)nc12 | 1000 s
39 | CO[C@H]1CN(C(C)C)[C@H]1C1CCN(C(=O)C2CCC2)CC1 | 574 s
40 | O=C(Nc1nc(-c2ccccc2)cs1)C(=O)c1c[nH]c2ccccc12 | 1070 s
41 | CC(C)CNC(=O)c1nc2cccnc2n(CC(C)C)c1=O | 940 s
42 | O=c1ccc(-c2ccc3c(c2)OCO3)nn1CCc1nc(-c2ccc(F)cc2)no1 | 927 s
43 | CN(CC#N)C(=O)c1ccc(N2CCc3ccccc32)s1 | 913 s
44 | CC1(C)CC(=O)C2=C(C1)Nc1ccccc1N(CC(=O)NCC1CCCO1)C2c1cccs1 (centres undefined) | 754 s
45 | COCCNC(=O)C(=O)NCCc1cccc(OC)c1 | 650 s
46 | Cc1c(C2CCN(C(=O)c3cc4ccccc4[nH]3)CC2)noc1N | 729 s

Row | Compound | RP-LC retention time
47 | Cc1ccc(CNC(=O)C2CCN(S(=O)(=O)c3cn(C(C)C)cn3)CC2)cc1 | 745 s
48 | CCc1nc2sc(C)nn2c1S(=O)(=O)N1CCOCC1 | 699 s
49 | COc1ccc(/C=C/c2nc(-c3ccc4oc(C)nc4c3)no2)cc1OC | 995 s
50 | O=C(Nc1cccc(-c2cn3cccnc3n2)c1)c1cccc(Br)c1 | 728 s
51 | Cc1ccc(C)c(NC(=O)Cn2c(N3CCCC3)nc(C)cc2=O)c1 | 656 s
52 | CCOc1ccc(-c2cc3c(=O)n(Cc4nc(-c5ccccc5OCC)no4)ncn3n2)cc1 | 1180 s
53 | CC(=O)N1CCCN(C2=NS(=O)(=O)C(c3ccc(C)c(C)c3)=C2C)CC1 | 630 s
54 | O=C(CC1CCCCC1)N1CCC(c2ccncc2)CC1 | 622 s
55 | COc1ccc(NC(=O)N2C[C@@H]3C[C@H]2C[C@@H]3NS(=O)(=O)c2ccccc2)cc1F | 778 s
56 | Cc1nn(C(C)C(=O)NCCCN2CCCCCC2)c(=O)c2c1sc1ccccc12 (centres undefined) | 702 s
57 | COc1ccc(NC(=O)CN2CCc3c(c(=O)c4cc(C)ccc4n3C)C2)cc1Cl | 638 s
58 | COc1ccccc1CNC(=O)c1cn(C)nc1S(=O)(=O)N1CCC(C)CC1 | 951 s
59 | Cc1c(C(=O)C(=O)NCCc2ccccc2)c2ccccc2n1C | 887 s
60 | O=C(Cn1c(=O)oc2ccccc21)N1CCC(c2noc(-c3ccncc3)n2)C1 (centres undefined) | 712 s
61 | Cc1cc(C(F)(F)F)nn1CC(=O)NCC1Cn2cccc2CN1C (centres undefined) | 726 s
62 | Cc1ccn2c(Nc3ccc4c(c3)OCO4)c(-c3ccccc3)nc2c1 | 690 s
63 | CCc1ccc(S(=O)(=O)c2cnc(N3CCN(c4cc(C)ccc4C)CC3)nc2N)cc1 | 1400 s
64 | O=C(c1cc(-c2ccccc2)n[nH]1)N1C[C@H]2CNC(=O)[C@]23CCCC[C@@H]13 | 683 s
65 | O=C(Cn1cnc2c(sc3nc(-c4ccccc4)ccc32)c1=O)Nc1ccc2c(c1)OCCO2 | 948 s
66 | CC(C)(C)NC(=O)N1CCC(N2CC3(CCCCC3)C2c2ccncc2)CC1 (centres undefined) | 611 s
67 | CC(=O)N1CCC2(CC1)NC(=O)c1ccccc1O2 | 633 s
68 | Cc1ccc(NC(=O)CSCC(=O)N2CCC(C(N)=O)CC2)cc1 | 630 s
69 | COC(=O)c1cnc(N2CCN(C)CC2)c2ccccc12 | 610 s

Row | Compound | RP-LC retention time
70 | CC1CCCN(S(=O)(=O)c2cccc(-c3cn4cc(Cl)ccc4n3)c2)C1 (centres undefined) | 999 s
71 | Cc1cc(NC(=O)c2cccc(N3C(=O)CCC3=O)c2)on1 | 622 s
72 | CCCOc1cc(S(=O)(=O)NCCCn2ccnc2)ccc1Cl | 596 s
73 | Cc1cc(-c2nnc(-c3ccccc3)o2)c(C)n1CC(=O)NCc1cccc(Cl)c1 | 973 s
74 | Cc1ccc(-c2cc(C(F)(F)F)on2)cc1S(=O)(=O)N1CCCCC1C (centres undefined) | 852 s
75 | CCN1CCN(CCNC(=O)Cn2c3ccccc3c3cnn(C)c(=O)c32)CC1 | 577 s
76 | CCOC(=O)CNC(=O)N1CCN(c2nc3ccccc3n2CC)CC1 | 602 s
77 | Cc1ccc(CNC(=O)C2CCCN(c3nc4c(s3)c(C)nn4-c3ccc(F)cc3)C2)o1 (centres undefined) | 1100 s
78 | O=S(=O)(c1cccc(-c2nnc(SC/C=C/c3ccccc3)o2)c1)N1CCOCC1 | 980 s
79 | COc1ccccc1N1CCN(c2nccc(-n3nc(C)cc3C)n2)CC1 | 1010 s
80 | Cc1ccc(CC(=O)NC2CCN(c3cc(-c4ccc(Cl)cc4)[nH]n3)C2)cc1 (centres undefined) | 807 s
81 | Cn1cc(C(=O)N2CCOCC2)cc(NC(=O)c2cccs2)c1=O | 596 s
82 | Cn1nc(-c2nnc(-c3ccc(F)cc3)o2)c2c1CCN(S(=O)(=O)c1cccc3nsnc13)C2 | 910 s
83 | c1ccc(CSc2ccc(-c3ccc4c(c3)OCO4)nn2)nc1 | 617 s
84 | CCOc1ccccc1N1CCN(S(=O)(=O)c2nn(C)cc2C(=O)NCCC(C)C)CC1 | 1080 s
85 | CCN1CCCn2cc(S(=O)(=O)Nc3ccc(C)c(F)c3)cc2C1=O | 754 s
86 | O=S(=O)(Nc1ccc(F)cc1)c1ccc2c(c1)-c1oncc1CO2 | 866 s
87 | Cc1ccc(-n2nc(N3CCCC(C(=O)NCc4ccc(OC(C)C)cc4)C3)ccc2=O)cc1Cl (centres undefined) | 999 s
88 | Cn1c(=O)c2c(-c3ccc(Cl)cc3)c(C#N)c(N)nc2n(C)c1=O | 814 s
89 | Cc1ccc(NC(=O)Cc2c(C(=O)O)c(C)cn2C)c(C)c1 | 771 s
